Broadly, the EC50 is the concentration that produces a half-maximal response.

Counter-ions that a name gives are not always drawn.

In this experiment the target is T1, mutant CFTR (Homo sapiens, UniProt P13569, DEL508-508).
T1 construct: expressed in transfected cells
T1 sequence (P13569 with tags, fused parts or gaps DEL508-508): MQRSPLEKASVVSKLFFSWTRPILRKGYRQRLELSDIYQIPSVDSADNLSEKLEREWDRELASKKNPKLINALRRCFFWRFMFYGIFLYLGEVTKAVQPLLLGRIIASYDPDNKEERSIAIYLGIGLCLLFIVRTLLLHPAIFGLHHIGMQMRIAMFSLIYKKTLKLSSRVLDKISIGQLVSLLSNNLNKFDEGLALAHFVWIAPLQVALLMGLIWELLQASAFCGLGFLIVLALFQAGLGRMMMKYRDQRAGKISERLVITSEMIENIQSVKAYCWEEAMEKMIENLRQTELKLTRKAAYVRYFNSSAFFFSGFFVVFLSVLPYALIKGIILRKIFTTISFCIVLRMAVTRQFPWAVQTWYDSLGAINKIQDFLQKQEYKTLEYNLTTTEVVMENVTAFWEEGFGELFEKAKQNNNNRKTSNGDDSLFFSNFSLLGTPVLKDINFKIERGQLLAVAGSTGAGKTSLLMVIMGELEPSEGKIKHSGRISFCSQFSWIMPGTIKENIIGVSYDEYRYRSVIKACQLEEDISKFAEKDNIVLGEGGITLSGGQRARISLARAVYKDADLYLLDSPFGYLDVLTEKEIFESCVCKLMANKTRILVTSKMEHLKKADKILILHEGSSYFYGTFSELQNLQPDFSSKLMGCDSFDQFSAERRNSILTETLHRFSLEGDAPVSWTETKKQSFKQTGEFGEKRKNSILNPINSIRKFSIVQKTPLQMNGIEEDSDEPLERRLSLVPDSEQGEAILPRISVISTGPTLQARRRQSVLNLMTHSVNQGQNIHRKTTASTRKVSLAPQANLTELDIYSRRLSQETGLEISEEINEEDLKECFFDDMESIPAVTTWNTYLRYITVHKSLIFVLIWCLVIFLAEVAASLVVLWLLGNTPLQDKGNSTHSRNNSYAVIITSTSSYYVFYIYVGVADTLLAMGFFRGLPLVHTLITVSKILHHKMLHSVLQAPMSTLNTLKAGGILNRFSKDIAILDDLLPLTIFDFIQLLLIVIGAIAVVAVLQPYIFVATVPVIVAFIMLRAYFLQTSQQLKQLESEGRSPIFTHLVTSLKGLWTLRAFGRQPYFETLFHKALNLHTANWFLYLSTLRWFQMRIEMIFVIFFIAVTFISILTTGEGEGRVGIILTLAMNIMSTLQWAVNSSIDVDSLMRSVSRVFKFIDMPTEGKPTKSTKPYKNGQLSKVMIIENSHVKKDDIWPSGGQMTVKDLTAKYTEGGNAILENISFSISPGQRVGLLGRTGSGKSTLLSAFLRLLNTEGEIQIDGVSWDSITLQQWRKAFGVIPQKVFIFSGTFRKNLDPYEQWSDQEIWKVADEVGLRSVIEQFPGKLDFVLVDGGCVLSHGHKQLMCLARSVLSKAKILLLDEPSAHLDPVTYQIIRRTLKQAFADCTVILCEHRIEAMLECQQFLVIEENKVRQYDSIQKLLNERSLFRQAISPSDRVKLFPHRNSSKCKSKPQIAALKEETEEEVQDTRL
As to the kind of experiment: Fluorescence (HS-YFP) assay for CFTR activity, corrector assay. Type of experiment: cell-based. Conditions: CFBE41o- and FRT cells with stable expression of mutant CFTR, read-out: activity (EC50).
In the case of `CN(C(=O)c1cccc(-n2nc(C(F)(F)F)c3c2C(Oc2ccc(C(=O)O)cn2)COC3)c1)c1ccc2c(c1)OC(F)(F)O2` (single isomer, unassigned) [Compound 277, (S) or (R)-6-[[1-[3-[(2,2-difluoro-1,3-benzodioxol-5-yl)-methyl-carbamoyl]phenyl]-3-(trifluoromethyl)-6,7-dihydro-4H-pyrano[4,3-c]pyrazol-7-yl]oxy]pyridine-3-carboxylic acid], the EC50 was below 1000 nM.

As to `CN(C(=O)c1cccc(-n2nc(C(F)(F)F)c3c2C(Oc2ccc(C(=O)O)cn2)COC3)c1)c1ccc2c(c1)OC(F)(F)O2` (single isomer, unassigned) [Compound 278, (R) or (S)-6-[[1-[3-[(2,2-difluoro-1,3-benzodioxol-5-yl)-methyl-carbamoyl]phenyl]-3-(trifluoromethyl)-6,7-dihydro-4H-pyrano[4,3-c]pyrazol-7-yl]oxy]pyridine-3-carboxylic acid], the EC50 is below 1000 nM.

On to `CN(C(=O)c1cccc(-n2nc(C(F)(F)F)c3c2C(Oc2ccc(C(=O)O)cc2)CCC3)c1)c1ccc2c(c1)OCC2` (single isomer, unassigned) [Compound 279, (S) or (R)-4-[[1-[3-[2,3-dihydrobenzofuran-6-yl(methyl)carbamoyl]phenyl]-3-(trifluoromethyl)-4,5,6,7-tetrahydroindazol-7-yl]oxy]benzoic acid], for which the EC50 was below 1000 nM.

On to `CN(C(=O)c1cccc(-n2nc(C(F)(F)F)c3c2C(Oc2ccc(C(=O)O)cc2)CCC3)c1)c1ccc2c(c1)OCC2` (single isomer, unassigned) [Compound 280, (R) or (S)-4-[[(1-[3-[2,3-dihydrobenzofuran-6-yl(methyl)carbamoyl]phenyl]-3-(trifluoromethyl)-4,5,6,7-tetrahydroindazol-7-yl]oxy]benzoic acid], for which the EC50 is below 1000 nM.

Regarding `CN(C(=O)c1cccc(-n2nc(C(F)(F)F)c3c2C(Oc2ccc(C(=O)O)cc2)COC3)c1)c1ccc2c(c1)OCC2` (single isomer, unassigned) [Compound 282, (R) or (S)-4-[[1-[3-[2,3-dihydrobenzofuran-6-yl(methyl)carbamoyl]phenyl]-3-(trifluoromethyl)-6,7-dihydro-4H-pyrano[4,3-c]pyrazol-7-yl]oxy]benzoic acid], the EC50 was below 1000 nM.

In the case of `CN(C(=O)c1cccc(-n2nc(C(F)(F)F)c3c2C(Oc2ccc(C(=O)O)cc2)COC3)c1)c1ccc2c(c1)OCC2` (single isomer, unassigned) [Compound 283, (S) or (R)-4-[[1-[3-[2,3-dihydrobenzofuran-6-yl(methyl)carbamoyl]phenyl]-3-(trifluoromethyl)-6,7-dihydro-4H-pyrano[4,3-c]pyrazol-7-yl]oxy]benzoic acid], the EC50 was 1000 to 2000 nM.

Take `CN(C(=O)c1cccc(-n2nc(C(F)(F)F)c3c2C(Oc2ccc(C(N)=O)cc2)CCC3)c1)c1ccc2c(c1)OC(F)(F)O2` (single isomer, unassigned) [Compound 284, (S) or (R)-3-[7-(4-Carbamoylphenoxy)-3-(trifluoromethyl)-4,5,6,7-tetrahydroindazol-1-yl]-N-(2,2-difluoro-1,3-benzodioxol-5-yl)-N-methyl-benzamide]: the EC50 is below 1000 nM.

Consider `CN(C(=O)c1cccc(-n2nc(C(F)(F)F)c3c2C(Oc2ccc(C(N)=O)cc2)CCC3)c1)c1ccc2c(c1)OC(F)(F)O2` (single isomer, unassigned) [Compound 285, (R) or (S)-3-[7-(4-Carbamoylphenoxy)-3-(trifluoromethyl)-4,5,6,7-tetrahydroindazol-1-yl]-N-(2,2-difluoro-1,3-benzodioxol-5-yl)-N-methyl-benzamide], for which the EC50 is below 1000 nM.

In the case of `Cc1nc2ncc(N(C)C(=O)c3cccc(-n4nc(C(F)(F)F)c5c4C(Oc4ccc(C(=O)O)cc4)CCC5)c3)cc2o1` (single isomer, unassigned) [Compound 286, (R) or (S)-4-[[1-[3-[Methyl-(2-methyloxazolo[4,5-b]pyridin-6-yl)carbamoyl]phenyl]-3-(trifluoromethyl)-4,5,6,7-tetrahydroindazol-7-yl]oxy]benzoic acid], the EC50 lay in the range of 1000 to 2000 nM.

For the compound `Cc1nc2ncc(N(C)C(=O)c3cccc(-n4nc(C(F)(F)F)c5c4C(Oc4ccc(C(=O)O)cc4)CCC5)c3)cc2o1` (single isomer, unassigned) [Compound 287, (S) or (R)-4-[[1-[3-[Methyl-(2-methyloxazolo[4,5-b]pyridin-6-yl)carbamoyl]phenyl]-3-(trifluoromethyl)-4,5,6,7-tetrahydroindazol-7-yl]oxy]benzoic acid], the EC50 is below 1000 nM.

`CN(C(=O)c1cccc(-n2nc(C(F)(F)F)c3c2C(Oc2ccc(C(=O)O)cc2)CCC3)c1)c1ccnc(OC(F)F)c1` (single isomer, unassigned) [Compound 288, (R) or (S)-4-[[1-[3-[[2-(Difluoromethoxy)-4-pyridyl]-methyl-carbamoyl]phenyl]-3-(trifluoromethyl)-4,5,6,7-tetrahydroindazol-7-yl]oxy]benzoic acid]: the EC50 is below 1000 nM.

Regarding `CN(C(=O)c1cccc(-n2nc(C(F)(F)F)c3c2C(Oc2ccc(C(=O)O)cc2)CCC3)c1)c1ccnc(OC(F)F)c1` (single isomer, unassigned) [Compound 289, (S) or (R)-4-[[1-[3-[[2-(Difluoromethoxy)-4-pyridyl]-methyl-carbamoyl]phenyl]-3-(trifluoromethyl)-4,5,6,7-tetrahydroindazol-7-yl]oxy]benzoic acid], the EC50 was below 1000 nM.

With `CN(C(=O)c1cccc(-n2nc(C(F)(F)F)c3c2C(Oc2ccc(C(=O)O)cc2)COC3)c1)c1ccnc(OC(F)F)c1` (single isomer, unassigned) [Compound 290, (R) or (S)-4-[[1-[3-[[2-(Difluoromethoxy)-4-pyridyl]-methyl-carbamoyl]phenyl]-3-(trifluoromethyl)-6,7-dihydro-4H-pyrano[4,3-c]pyrazol-7-yl]oxy]benzoic acid], the 50% effective concentration (EC50) was below 1000 nM.

With `CN(C(=O)c1cccc(-n2nc(C(F)(F)F)c3c2C(Oc2ccc(C(=O)O)cc2)COC3)c1)c1ccnc(OC(F)F)c1` (single isomer, unassigned) [Compound 291, (S) or (R)-4-[[1-[3-[[2-(difluoromethoxy)-4-pyridyl]-methyl-carbamoyl]phenyl]-3-(trifluoromethyl)-6,7-dihydro-4H-pyrano[4,3-c]pyrazol-7-yl]oxy]benzoic acid], the concentration for a half-maximal effect (EC50) lay within 1000 to 2000 nM.

Take `CN(C(=O)c1cccc(-n2nc(C(F)(F)F)c3c2C(Oc2ncc(C(=O)O)cn2)COC3)c1)c1ccc2c(c1)OCC2` (single isomer, unassigned) [Compound 298, (R) or (S)-2-[[1-[3-[2,3-dihydrobenzofuran-6-yl(methyl)carbamoyl]phenyl]-3-(trifluoromethyl)-6,7-dihydro-4H-pyrano[4,3-c]pyrazol-7-yl]oxy]pyrimidine-5-carboxylic acid]: the EC50 was below 1000 nM.

For `CN(C(=O)c1cccc(-n2nc(C(F)(F)F)c3c2C(Oc2ncc(C(=O)O)cn2)COC3)c1)c1ccc2c(c1)OCC2` (single isomer, unassigned) [Compound 299, (S) or (R)-2-[[1-[3-[2,3-dihydrobenzofuran-6-yl(methyl)carbamoyl]phenyl]-3-(trifluoromethyl)-6,7-dihydro-4H-pyrano[4,3-c]pyrazol-7-yl]oxy]pyrimidine-5-carboxylic acid], the EC50 fell in the range of 1000 to 2000 nM.

Regarding `CN(C(=O)c1cccc(-n2nc(C(F)(F)F)c3c2C(Oc2ccc(CO)cc2)CCC3)c1)c1ccc2c(c1)OC(F)(F)O2` (stereo in doubt) [Compound 304, N-(2,2-Difluoro-1,3-benzodioxol-5-yl)-3-[(S)-7-[4-(hydroxymethyl)phenoxy]-3-(trifluoromethyl)-4,5,6,7-tetrahydroindazol-1-yl]-N-methyl-benzamide], the EC50 is below 1000 nM.

For the compound `CN(C(=O)c1cccc(-n2nc(C(F)(F)F)c3c2CCN(C(=O)OC(C)(C)C)C3)c1)c1ccc2c(c1)OCO2` [Compound 001, Tert-butyl 1-[3-[1,3-benzodioxol-5-yl(methyl)carbamoyl]phenyl]-3-(trifluoromethyl)-6,7-dihydro-4H-pyrazolo[4,3-c]pyridine-5-carboxylate], the EC50 is below 1000 nM.

Consider `CN(C(=O)c1cccc(-n2nc(C(F)(F)F)c3c2CCNC3)c1)c1ccc2c(c1)OCO2` [Compound 002, N-(1,3-Benzodioxol-5-yl)-N-methyl-3-[3-(trifluoromethyl)-4,5,6,7-tetrahydropyrazolo[4,3-c]pyridin-1-yl] benzamide hydrochloride], for which the concentration giving a half-maximal response (EC50) was below 1000 nM.

For the compound `CC(=O)N1CCc2c(c(C(F)(F)F)nn2-c2cccc(C(=O)N(C)c3ccc4c(c3)OCO4)c2)C1` [Compound 004, 3-[5-Acetyl-3-(trifluoromethyl)-6,7-dihydro-4H-pyrazolo[4,3-c]pyridin-1-yl]-N-(1,3-benzodioxol-5-yl)-N-methyl-benzamide], the EC50 was below 1000 nM.

On to `CN(C(=O)c1cccc(-n2nc(C(F)(F)F)c3c2CCCC3)c1)c1ccc2c(c1)OCO2` [Compound 005, N-(1,3-Benzodioxol-5-yl)-N-methyl-3-[3-(trifluoromethyl)-4,5,6,7-tetrahydroindazol-1-yl]benzamide], for which the concentration for a half-maximal effect (EC50) was below 1000 nM.

On to `CN(C(=O)c1cccc(-n2nc(C(F)(F)F)c3c2CCN(S(C)(=O)=O)C3)c1)c1ccc2c(c1)OCO2` [Compound 006, N-(1,3-Benzodioxol-5-yl)-N-methyl-3-[5-methylsulfonyl-3-(trifluoromethyl)-6,7-dihydro-4H-pyrazolo[4,3-c]pyridin-1-yl]benzamide], for which the EC50 was below 1000 nM.

As for `CN(C(=O)c1cccc(-n2nc(C(F)(F)F)c3c2CCN(S(=O)(=O)c2ccccc2)C3)c1)c1ccc2c(c1)OCO2` [Compound 007, 3-[5-(Benzenesulfonyl)-3-(trifluoromethyl)-6,7-dihydro-4H-pyrazolo[4,3-c]pyridin-1-yl]-N-(1,3-benzodioxol-5-yl)-N-methyl-benzamide], the EC50 was below 1000 nM.

Consider `CN(C(=O)c1cccc(-n2nc(C(F)(F)F)c3c2CCN(C(=O)c2ccccc2)C3)c1)c1ccc2c(c1)OCO2` [Compound 008, N-(1,3-Benzodioxol-5-yl)-3-[5-benzoyl-3-(trifluoromethyl)-6,7-dihydro-4H-pyrazolo[4,3-c]pyridin-1-yl]-N-methyl-benzamide], for which the EC50 is below 1000 nM.

(Values after patent US10968225B2, “Compounds and compositions for the treatment of cystic fibrosis” (Fondazione Istituto Italiano Di Tecnologia, priority 2017, dated 2021).)
